Source: ChEMBL document CHEMBL4340533, “Discovery of an EGFR tyrosine kinase inhibitor from Ilex latifolia in breast cancer therapy” (Bioorg Med Chem Lett, 2019)
Calls of active or inactive are those of the source. The calls are words filed in the database; no cut-off is given here.

Tests used:
MDA-MB-231 [1] = test: Induction of apoptosis in human MDA-MB-231 cells assessed as down regulation of PARP1 expression by Western blot analysis; assay type: functional, cell-based
Mus musculus [2] = test: Effect on RAF expression in athymic BALB/c nude mouse xenografted with human MDA-MB-231 cells at 1.25 to 5 mg/kg, sc administered every two days for 28 days by Western blot analysis; assay type: functional, organism-based
Mus musculus [3] = test: Down regulation of PI3K expression athymic BALB/c nude mouse xenografted with human MDA-MB-231 cells at 1.25 to 5 mg/kg, sc administered every two days for 28 days by Western blot analysis; assay type: functional, organism-based
MDA-MB-231 [4] = test: Induction of apoptosis in human MDA-MB-231 cells assessed as increase in apoptotic cells after 24 hrs in presence of EGFR siRNA by Annexin-V-FITC/propidium iodide staining based FACS analysis; assay type: functional, cell-based
MDA-MB-231 [5] = test: Induction of apoptosis in human MDA-MB-231 cells assessed as increase in cleaved caspase 3 expression at 20 to 80 ug/ml by Western blot analysis; assay type: functional, cell-based
Mus musculus [6] = test: Down regulation of mTOR expression in athymic BALB/c nude mouse xenografted with human MDA-MB-231 cells at 1.25 to 5 mg/kg, sc administered every two days for 28 days by Western blot analysis; assay type: functional, organism-based
MDA-MB-231 [7] = test: Induction of apoptosis in human MDA-MB-231 cells assessed as increase in late apoptotic cells at 20 to 40 ug/ml after 24 hrs by Annexin-V-FITC/propidium iodide staining based FACS analysis; assay type: functional, cell-based
Mus musculus [8] = test: Down regulation of RAS expression in athymic BALB/c nude mouse xenografted with human MDA-MB-231 cells at 1.25 to 5 mg/kg, sc administered every two days for 28 days by Western blot analysis; assay type: functional, organism-based
[9] = biological target: Epidermal growth factor receptor (Homo sapiens) (UniProt P00533); test: Inhibition of EGFR phosphorylation in human MDA-MB-231 cells by Western blot analysis; assay type: cell-based
MDA-MB-231 [10] = test: Induction of apoptosis in human MDA-MB-231 cells assessed as early apoptotic cells at 80 ug/ml after 24 hrs by Annexin-V-FITC/propidium iodide staining based FACS analysis relative to control; assay type: functional
Mus musculus [11] = test: Induction of ERK phosphorylation in athymic BALB/c nude mouse xenografted with human MDA-MB-231 cells at 1.25 to 5 mg/kg, sc administered every two days for 28 days by Western blot analysis; assay type: functional, organism-based
MDA-MB-231 [12] = test: Induction of apoptosis in human MDA-MB-231 cells assessed as increase in apoptotic cells after 24 hrs in presence of lapatinib by Annexin-V-FITC/propidium iodide staining based FACS analysis; assay type: functional, cell-based
Mus musculus [13] = test: Down regulation of AKT phosphorylation in athymic BALB/c nude mouse xenografted with human MDA-MB-231 cells at 1.25 to 5 mg/kg, sc administered every two days for 28 days by Western blot analysis; assay type: functional, organism-based
Mus musculus [14] = test: Effect on MEK phosphorylation in athymic BALB/c nude mouse xenografted with human MDA-MB-231 cells at 1.25 to 5 mg/kg, sc administered every two days for 28 days by western blot analysis; assay type: functional, organism-based
MDA-MB-231 [15] = test: Antiproliferative activity against human MDA-MB-231 cells assessed as reduction in cell viability after 24 hrs by MTT assay; assay type: functional, cell-based
Mus musculus [16] = test: Increase in ERK expression in athymic BALB/c nude mouse xenografted with human MDA-MB-231 cells at 1.25 to 5 mg/kg, sc administered every two days for 28 days by Western blot analysis; assay type: functional, organism-based
MDA-MB-231 [17] = test: Antitumor activity against human MDA-MB-231 cells xenografted in athymic BALB/c nude mouse assessed as decrease in tumor volume at 1.25 to 5 mg/kg, […] administered every two days for 28 days measured post-last dose by caliper method; assay type: functional, organism-based
[18] = tested on: Epidermal growth factor receptor (Homo sapiens), P00533 [L858R]; test: Inhibition of EGFR L858R mutant (unknown origin) using polyE4Y1 as substrate measured after 60 mins
Mus musculus [19] = test: Effect on MEK expression in athymic BALB/c nude mouse xenografted with human MDA-MB-231 cells at 1.25 to 5 mg/kg, sc administered every two days for 28 days by western blot analysis; assay type: functional, organism-based

Epidermal growth factor receptor (Homo sapiens), P00533 [L858R], sequence (P00533 whole entry L858R): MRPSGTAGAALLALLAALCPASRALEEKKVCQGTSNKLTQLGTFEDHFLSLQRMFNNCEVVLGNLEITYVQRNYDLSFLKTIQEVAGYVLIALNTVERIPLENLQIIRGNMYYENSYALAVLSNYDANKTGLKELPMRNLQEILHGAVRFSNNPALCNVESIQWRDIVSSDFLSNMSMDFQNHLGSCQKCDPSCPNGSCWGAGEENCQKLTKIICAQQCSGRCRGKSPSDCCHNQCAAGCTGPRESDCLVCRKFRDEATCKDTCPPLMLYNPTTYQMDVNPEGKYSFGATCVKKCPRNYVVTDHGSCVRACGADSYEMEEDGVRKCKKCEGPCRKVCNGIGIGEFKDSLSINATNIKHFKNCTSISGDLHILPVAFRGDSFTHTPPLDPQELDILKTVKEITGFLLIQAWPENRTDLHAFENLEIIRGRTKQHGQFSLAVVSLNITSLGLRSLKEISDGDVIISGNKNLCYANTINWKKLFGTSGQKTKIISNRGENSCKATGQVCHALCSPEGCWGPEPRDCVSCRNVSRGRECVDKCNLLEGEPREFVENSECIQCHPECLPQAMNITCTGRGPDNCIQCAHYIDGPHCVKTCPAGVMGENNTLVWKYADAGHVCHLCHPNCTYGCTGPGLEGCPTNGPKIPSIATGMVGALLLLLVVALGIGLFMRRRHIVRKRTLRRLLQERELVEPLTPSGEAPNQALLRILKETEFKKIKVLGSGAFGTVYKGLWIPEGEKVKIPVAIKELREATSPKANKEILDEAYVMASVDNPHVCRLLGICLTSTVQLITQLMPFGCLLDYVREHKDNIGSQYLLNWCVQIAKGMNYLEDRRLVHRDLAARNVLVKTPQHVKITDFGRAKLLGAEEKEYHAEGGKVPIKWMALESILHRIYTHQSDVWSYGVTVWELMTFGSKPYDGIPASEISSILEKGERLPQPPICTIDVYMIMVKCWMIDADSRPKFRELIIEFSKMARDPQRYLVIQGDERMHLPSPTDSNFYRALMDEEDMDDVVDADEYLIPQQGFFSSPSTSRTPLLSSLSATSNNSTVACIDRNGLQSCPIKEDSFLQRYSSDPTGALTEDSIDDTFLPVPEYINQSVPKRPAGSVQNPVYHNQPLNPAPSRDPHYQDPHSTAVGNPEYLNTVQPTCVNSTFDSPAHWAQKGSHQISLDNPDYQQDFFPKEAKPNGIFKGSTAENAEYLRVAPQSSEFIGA
Epidermal growth factor receptor (Homo sapiens), sequence (P00533 whole entry): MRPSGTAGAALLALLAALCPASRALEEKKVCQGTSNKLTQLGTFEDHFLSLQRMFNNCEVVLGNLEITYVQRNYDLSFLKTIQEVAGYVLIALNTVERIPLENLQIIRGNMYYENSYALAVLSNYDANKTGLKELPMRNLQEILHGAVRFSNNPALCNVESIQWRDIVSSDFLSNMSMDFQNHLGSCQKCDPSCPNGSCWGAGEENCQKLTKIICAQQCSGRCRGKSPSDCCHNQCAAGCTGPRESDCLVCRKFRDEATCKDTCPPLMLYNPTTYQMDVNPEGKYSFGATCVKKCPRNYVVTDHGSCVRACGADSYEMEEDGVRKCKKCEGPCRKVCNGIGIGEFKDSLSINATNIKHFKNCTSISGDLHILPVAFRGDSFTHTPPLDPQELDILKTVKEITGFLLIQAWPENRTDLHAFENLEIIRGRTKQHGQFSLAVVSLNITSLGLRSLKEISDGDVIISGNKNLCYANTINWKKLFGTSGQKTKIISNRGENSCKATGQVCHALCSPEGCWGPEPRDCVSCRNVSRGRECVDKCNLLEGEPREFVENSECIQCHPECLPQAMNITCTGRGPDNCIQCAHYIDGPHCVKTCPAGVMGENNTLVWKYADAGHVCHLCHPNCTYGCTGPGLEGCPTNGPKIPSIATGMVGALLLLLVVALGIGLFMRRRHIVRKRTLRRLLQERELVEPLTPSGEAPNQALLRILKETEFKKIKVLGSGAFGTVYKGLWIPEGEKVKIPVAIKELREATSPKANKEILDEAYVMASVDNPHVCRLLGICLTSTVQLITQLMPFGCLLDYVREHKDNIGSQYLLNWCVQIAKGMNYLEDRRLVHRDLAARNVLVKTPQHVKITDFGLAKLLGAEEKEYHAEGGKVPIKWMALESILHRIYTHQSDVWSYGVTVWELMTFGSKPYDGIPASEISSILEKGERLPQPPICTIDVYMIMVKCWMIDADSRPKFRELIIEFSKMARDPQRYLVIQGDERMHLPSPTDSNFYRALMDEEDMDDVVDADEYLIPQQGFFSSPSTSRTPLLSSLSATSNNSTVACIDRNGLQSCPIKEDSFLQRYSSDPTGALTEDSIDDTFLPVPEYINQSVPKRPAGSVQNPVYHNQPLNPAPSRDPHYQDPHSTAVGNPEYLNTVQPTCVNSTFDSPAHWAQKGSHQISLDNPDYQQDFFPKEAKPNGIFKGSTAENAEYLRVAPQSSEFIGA

C[C@H]1[C@H](C)CC[C@]2(C(=O)O)CC[C@]3(COC(=O)/C=C/c4ccc(O)cc4)C(=CC[C@@H]4[C@@]5(C)CC[C@H](O)C(C)(C)[C@@H]5CC[C@]43C)[C@H]12
Activity (MDA-MB-231 [1]): Dose-dependent effect | Activity (Mus musculus [2]): inactive | Activity (Mus musculus [3]): Active | Activity (MDA-MB-231 [4]): inactive | Activity (MDA-MB-231 [5]): Active | Activity (Mus musculus [6]): Active | Activity (MDA-MB-231 [7]): Active | Activity (Mus musculus [8]): Active | inhibition [9]: Active | Activity (MDA-MB-231 [10]): 42.03% | Activity (Mus musculus [11]): Active | Activity (MDA-MB-231 [12]): inactive | Activity (Mus musculus [13]): Active | Activity (Mus musculus [14]): inactive | Activity (MDA-MB-231 [15]): Dose-dependent effect | Activity (Mus musculus [16]): Active | Activity (MDA-MB-231 [17]): Active | inhibition [18]: Dose-dependent effect | Activity (Mus musculus [19]): inactive
